Data from patent US20230219979A1, “PYRAZOLO[1,5-a]PYRIDINE COMPOUND, PREPARATION METHOD THEREFOR AND USE THEREOF” (SHENZHEN ZHONGGE BIOLOGICAL TECHNOLOGY CO., LTD., priority 2019, published 2023).
Like-named read-outs stand apart in the source and are kept apart here.

What was measured:
[1] = target: Wild-type RET kinase (Homo sapiens, UniProt P07949); assay: HTRF method for testing the inhibitory activity of compounds against RET; type: biochemical
[2] = target: VEGFR2 kinase (Homo sapiens, UniProt P35968); assay: HTRF method for testing the inhibitory activity of compounds against VEGFR2; type: biochemical
VEGFR2 kinase, sequence (P35968 20-1356): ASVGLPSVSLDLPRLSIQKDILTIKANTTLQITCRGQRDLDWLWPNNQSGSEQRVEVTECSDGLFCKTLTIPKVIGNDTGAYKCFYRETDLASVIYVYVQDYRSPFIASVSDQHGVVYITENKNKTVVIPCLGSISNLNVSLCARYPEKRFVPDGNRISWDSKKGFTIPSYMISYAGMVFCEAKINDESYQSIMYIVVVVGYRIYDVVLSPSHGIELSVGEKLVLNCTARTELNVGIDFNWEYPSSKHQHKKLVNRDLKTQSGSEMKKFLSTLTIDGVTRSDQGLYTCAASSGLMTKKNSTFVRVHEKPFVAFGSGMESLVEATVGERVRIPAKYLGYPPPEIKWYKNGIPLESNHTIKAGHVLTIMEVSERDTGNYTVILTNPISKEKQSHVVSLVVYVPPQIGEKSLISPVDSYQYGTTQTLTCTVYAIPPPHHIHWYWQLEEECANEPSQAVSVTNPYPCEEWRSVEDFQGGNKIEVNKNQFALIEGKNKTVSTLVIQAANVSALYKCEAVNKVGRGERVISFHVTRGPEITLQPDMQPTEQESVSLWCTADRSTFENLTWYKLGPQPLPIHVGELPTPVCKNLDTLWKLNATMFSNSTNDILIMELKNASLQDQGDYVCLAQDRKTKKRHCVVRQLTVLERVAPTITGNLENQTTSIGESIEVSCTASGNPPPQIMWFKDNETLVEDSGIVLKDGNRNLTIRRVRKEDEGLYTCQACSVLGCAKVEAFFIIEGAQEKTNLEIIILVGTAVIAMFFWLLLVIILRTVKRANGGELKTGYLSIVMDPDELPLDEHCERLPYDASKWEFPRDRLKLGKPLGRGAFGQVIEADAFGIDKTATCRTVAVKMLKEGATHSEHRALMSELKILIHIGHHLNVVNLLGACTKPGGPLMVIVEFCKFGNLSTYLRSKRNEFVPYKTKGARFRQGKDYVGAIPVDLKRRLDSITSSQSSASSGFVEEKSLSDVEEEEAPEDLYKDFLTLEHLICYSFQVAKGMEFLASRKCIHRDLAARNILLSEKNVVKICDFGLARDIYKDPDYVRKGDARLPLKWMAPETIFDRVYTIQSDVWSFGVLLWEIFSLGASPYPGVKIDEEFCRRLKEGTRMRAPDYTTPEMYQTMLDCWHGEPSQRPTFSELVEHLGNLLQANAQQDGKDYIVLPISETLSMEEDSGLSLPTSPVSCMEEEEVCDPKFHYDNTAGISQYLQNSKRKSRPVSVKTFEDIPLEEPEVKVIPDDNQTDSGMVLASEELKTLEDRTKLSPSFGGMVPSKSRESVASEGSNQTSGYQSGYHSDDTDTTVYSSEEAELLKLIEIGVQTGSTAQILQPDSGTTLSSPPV

[3] = target: T1, Ba/F3-KIF5B-RET cell (Homo sapiens, UniProt P07949); assay: CellTiter-Glo luminescence assay, inhibitory activity against Ba/F3-KIF5B-RET cell; type: cell-based
T1 construct: fused on or other part: P33176 (Kinesin-1 heavy chain)
T1 sequence (P07949 whole entry, stated change not applied, the tested form may be a part): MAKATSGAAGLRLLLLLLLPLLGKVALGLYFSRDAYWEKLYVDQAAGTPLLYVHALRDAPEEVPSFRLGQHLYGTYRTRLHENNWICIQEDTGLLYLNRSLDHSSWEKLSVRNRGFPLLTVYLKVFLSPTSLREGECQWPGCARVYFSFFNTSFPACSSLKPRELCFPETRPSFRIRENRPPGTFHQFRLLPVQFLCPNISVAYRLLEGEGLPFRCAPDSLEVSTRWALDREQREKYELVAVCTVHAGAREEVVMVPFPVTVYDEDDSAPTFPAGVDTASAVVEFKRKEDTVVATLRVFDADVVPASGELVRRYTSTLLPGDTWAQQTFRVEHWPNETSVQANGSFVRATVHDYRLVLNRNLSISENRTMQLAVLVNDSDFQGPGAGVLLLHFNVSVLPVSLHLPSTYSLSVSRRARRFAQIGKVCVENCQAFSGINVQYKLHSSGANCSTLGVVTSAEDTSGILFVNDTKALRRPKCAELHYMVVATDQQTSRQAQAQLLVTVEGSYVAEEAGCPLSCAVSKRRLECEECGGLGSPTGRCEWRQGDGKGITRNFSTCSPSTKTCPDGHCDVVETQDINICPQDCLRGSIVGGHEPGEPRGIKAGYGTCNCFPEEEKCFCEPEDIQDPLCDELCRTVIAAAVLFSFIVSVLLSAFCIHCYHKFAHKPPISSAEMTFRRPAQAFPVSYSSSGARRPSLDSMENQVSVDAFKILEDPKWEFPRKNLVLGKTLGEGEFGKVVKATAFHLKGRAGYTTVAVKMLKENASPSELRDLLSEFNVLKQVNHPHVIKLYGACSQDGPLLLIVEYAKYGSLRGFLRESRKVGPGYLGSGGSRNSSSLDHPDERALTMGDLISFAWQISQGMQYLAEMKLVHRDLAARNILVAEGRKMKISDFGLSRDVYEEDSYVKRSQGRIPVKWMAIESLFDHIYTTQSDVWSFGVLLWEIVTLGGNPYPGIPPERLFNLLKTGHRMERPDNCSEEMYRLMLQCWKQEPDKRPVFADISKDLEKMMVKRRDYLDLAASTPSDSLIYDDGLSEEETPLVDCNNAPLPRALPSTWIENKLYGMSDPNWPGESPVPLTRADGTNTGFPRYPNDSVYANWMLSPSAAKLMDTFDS
Text: (C) In Vitro Screening Experiment - CellTiter-Glo Luminescence Assay for Testing The inhibitory activity of compounds against Ba/F3-KIF5B-RET cell
• 1. The mammalian cell expression vector containing human KIF5B-RET cDNA was introduced into Ba/F3 cells using the Neon® transfection system method, and the surviving clones screened by puromycin were subjected to cell growth inhibitory function experiments and Western blotting to verify cell lines with stable and high expression of RET. • 2. Cells were cultured in RPMI 1640 medium containing 10% fetal bovine serum, 1% penicillin-streptomycin, and 2 µg/mL puromycin, and then placed in a 37° C., 5% carbon dioxide cell incubator. • 3. The test compound (5 mM stock) was diluted 2.5 folds to […] with 100% dimethyl sulfoxide; and the compound was diluted into 10 concentrations at an equal ratio of 1:3 in a 384-well dilution plate. • 4. 0.2 µL of the serially diluted compound was added to a 384-well cell culture plate (Corning, 3570) using an Echo 550 pipetting system, 2 replicate wells for each concentration, and the final concentration of dimethyl sulfoxide was 0.5% (v/v). The gradient concentrations of the test compound were 5000, 1666.7, 555.5, 185.18, 61.72, 20.57, 6.858, 2.286, 0.764, 0.254 nM. • 5. 40 µL of Ba/F3-KIF5B-RET cell suspension containing 800 cells was added to each well, and incubated for 72 h in a 5% CO2 cell incubator. • 6. 20 µL of Cell Titer-Glo reagent was added to each well of the cell culture plate, and the culture system was then shaken and mixed thoroughly for 2 min to lyse the cells, the cells were then incubated at room temperature for 30 min, and the […] signal values were then read with an Envision 2104 microplate reader. • 7. By fitting the data with XLFit 5.0 based on the parameters formula, the IC50 value was calculated as: • [formula]

[4] = target: RET G810S kinase (Homo sapiens, UniProt P07949, G810S); assay: HTRF method for testing the inhibitory activity against RET G810S; type: biochemical; conditions: for IC50: HTRF; for inhibitory activity against G810S (in words): mutant strain of RET kinase
RET G810S kinase, sequence (P07949 29-1114 G810S): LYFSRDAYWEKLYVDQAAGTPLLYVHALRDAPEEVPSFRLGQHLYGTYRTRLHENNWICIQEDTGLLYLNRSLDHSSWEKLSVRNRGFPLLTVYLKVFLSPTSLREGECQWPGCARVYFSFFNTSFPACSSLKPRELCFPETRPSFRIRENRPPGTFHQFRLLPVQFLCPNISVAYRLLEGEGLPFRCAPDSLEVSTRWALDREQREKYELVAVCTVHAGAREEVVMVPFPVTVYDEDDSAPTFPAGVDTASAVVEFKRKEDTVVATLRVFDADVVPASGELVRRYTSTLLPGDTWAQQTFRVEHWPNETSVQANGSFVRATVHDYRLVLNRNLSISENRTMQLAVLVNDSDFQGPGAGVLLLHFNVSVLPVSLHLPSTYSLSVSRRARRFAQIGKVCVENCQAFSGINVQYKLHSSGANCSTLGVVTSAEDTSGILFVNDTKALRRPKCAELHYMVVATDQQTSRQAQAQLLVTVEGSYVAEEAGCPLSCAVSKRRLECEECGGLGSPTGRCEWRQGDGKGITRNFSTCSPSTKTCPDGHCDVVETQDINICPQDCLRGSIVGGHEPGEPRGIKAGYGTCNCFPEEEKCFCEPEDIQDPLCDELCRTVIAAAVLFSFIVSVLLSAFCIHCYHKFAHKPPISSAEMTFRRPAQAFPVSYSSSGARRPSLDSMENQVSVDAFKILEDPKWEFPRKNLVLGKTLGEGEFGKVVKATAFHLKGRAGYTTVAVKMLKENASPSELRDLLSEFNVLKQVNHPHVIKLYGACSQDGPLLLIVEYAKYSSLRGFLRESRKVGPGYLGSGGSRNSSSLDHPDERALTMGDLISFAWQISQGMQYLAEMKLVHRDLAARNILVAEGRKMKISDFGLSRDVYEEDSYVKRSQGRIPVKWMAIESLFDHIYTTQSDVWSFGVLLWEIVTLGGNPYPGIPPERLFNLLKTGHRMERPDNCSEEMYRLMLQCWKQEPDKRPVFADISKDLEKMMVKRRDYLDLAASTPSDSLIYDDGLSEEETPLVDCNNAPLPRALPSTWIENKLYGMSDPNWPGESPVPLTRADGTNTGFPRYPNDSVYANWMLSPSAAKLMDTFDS

[5] = target: RET G810R kinase (Homo sapiens, UniProt P07949, G810R); assay: HTRF method for testing the inhibitory activity against RET G810R; type: biochemical; conditions: for IC50: HTRF; for inhibitory activity against G810R (in words): mutant strain of RET kinase
RET G810R kinase, sequence (P07949 29-1114 G810R): as the sequence (P07949 29-1114 G810S) above, with S782R counted along it

[6] = HTRF, read-out: Wild-type RET kinase
[7] = 72 h, read-out: Ba/F3-KIF5B-RET cell activity

Wild-type RET kinase, sequence (P07949 29-1114): as the sequence (P07949 29-1114 G810S) above, with S782G counted along it

| IC50 [1, 6] [nM] | IC50 [2] [nM] | GI50 [3, 7] [nM] | Molecule | IC50 [1] [nM] | GI50 ([3]; read-out: Ba/F3-KIF5B-RET cell activity, 72 h) [nM] | IC50 [4] [nM] | inhibitory activity against G810S (in words) [4] | IC50 [5] [nM] | inhibitory activity against G810R (in words) [5] |
| --- | --- | --- | --- | --- | --- | --- | --- | --- | --- |
| 250 | ≥ 5000 | – | COc1ccc(CN2CCN(c3ccc(-c4cc(-c5cnn(C)c5)cn5ncc(C(N)=O)c45)cn3)CC2)cn1 [Compound 8, 4-(6-(4-((6-methoxypyridin-3-yl)methyl)piperazin-1-yl)pyridin-3-yl)-6-(1-methyl-1H-pyrazol-4-yl)pyrazolo[1,5-a]pyridine-3-carboxamide] | – | – | – | – | – | – |
| 4.14 | – | 83.3 | COc1ccc(CN2C3CC2CN(c2cnc(-c4cc(OCCN5CCC6(CC5)CC(=O)N6)cn5ncc(C#N)c45)cn2)C3)cn1 [Compound 32, 4-(5-(6-((6-methoxypyridin-3-yl)methyl)-3,6-diazabicyclo[3.1.1]heptan-3-yl)pyrazin-2-yl)-6-(2-(2-oxo-1,7-diazaspiro[3.5]non-7-yl)ethoxy)pyrazolo[1,5-a]pyridine-3-carbonitrile] | – | – | – | – | – | – |
| 5.73 | – | 26 | COc1ccc(CN2C3CC2CN(c2cnc(-c4cc(OCCN5CC6(CCCOC6)C5)cn5ncc(C#N)c45)cn2)C3)cn1 [Compound 33, 6-(2-(6-oxa-2-azaspiro[3.5]non-2-yl)ethoxy)-4-(5-(6-((6-methoxypyridin-3-yl)methyl)-3,6-diazabicyclo[3.1.1]heptan-3-yl)pyrazin-2-yl)pyrazolo[1,5-a]pyridine-3-carbonitrile] | – | – | – | – | – | – |
| 2.04 | – | 13.8 | COc1ccc(CN2C3CC2CN(c2cnc(-c4cc(OCCN5CC6(CCCO6)C5)cn5ncc(C#N)c45)cn2)C3)cn1 [Compound 34, 6-(2-(5-oxa-2-azaspiro[3.4]oct-2-yl)ethoxy)-4-(5-(6-((6-methoxypyridin-3-yl)methyl)-3,6-diazabicyclo[3.1.1]heptan-3-yl)pyrazin-2-yl)pyrazolo[1,5-a]pyridine-3-carbonitrile] | – | – | – | – | – | – |
| 3.08 | – | 81.5 | COc1ccc(CN2C3CC2CN(c2cnc(-c4cc(OCCN5CCC6(CCCNC6=O)CC5)cn5ncc(C#N)c45)cn2)C3)cn1 [Compound 35, 4-(5-(6-((6-methoxypyridin-3-yl)methyl)-3,6-diazabicyclo[3.1.1]heptan-3-yl)pyrazin-2-yl)-6-(2-(-1-oxo-2,9-diazaspiro[5.5]undecan-9-yl)ethoxy)pyrazolo[1,5-a]pyridine-3-carbonitrile] | – | – | – | – | – | – |
| 2.44 | 454 | 32.1 | COc1ccc(CN2C3CC2CN(c2cnc(-c4cc(OCCN5CC6(COC6)C5)cn5ncc(C#N)c45)cn2)C3)cn1 [Compound 36, 6-(2-(2-oxa-6-azaspiro[3.3]hept-6-yl)ethoxy)-4-(5-(6-((6-methoxypyridin-3-yl)methyl)-3,6-diazabicyclo[3.1.1]heptan-3-yl)pyrazin-2-yl)pyrazolo[1,5-a]pyridine-3-carbonitrile] | – | – | – | – | – | – |
| 5.7 | 801 | – | COc1ccc(CN2C3CC2CN(c2cnc(-c4cc(OCCN5CCC6(CCOCC6)CC5)cn5ncc(C#N)c45)cn2)C3)cn1 [Compound 37, 6-(2-(3-oxa-9-azaspiro[5.5]undec-9-yl)ethoxy)-4-(5-(6-((6-methoxypyridin-3-yl)methyl)-3,6-diazabicyclo[3.1.1]heptan-3-yl)pyrazin-2-yl)pyrazolo[1,5-a]pyridine-3-carbonitrile] | – | – | – | – | – | – |
| 3.22 | 666 | 37.3 | COc1ccc(CN2C3CC2CN(c2cnc(-c4cc(OCCN5CC6CCC5C6)cn5ncc(C#N)c45)cn2)C3)cn1 (stereo not drawn) [Compound 38, 6-(2-(2-azabicyclo[2.2.1]hept-2-yl)ethoxy)-4-(5-(6-((6-methoxypyridine-3-yl)methyl)-3,6-diazabicyclo[3.1.1]heptan-3-yl)pyrazin-2-yl)pyrazolo[1,5-a]pyridine-3-carbonitrile] | – | – | – | – | – | – |
| 1.25 | 259 | 15.6 | COc1ccc(CN2C3CC2CN(c2cnc(-c4cc(OCC(C)(C)C#N)cn5ncc(C#N)c45)cn2)C3)cn1 [Compound 39, 6-(2-cyano-2-methylpropoxy)-4-(5-(6-((6-methoxypyridin-3-yl)methyl)-3,6-diazabicyclo[3.1.1]heptan-3-yl)pyrazinpyridin-2-yl)pyrazolo[1,5-a]pyridine-3-carbonitrile] | – | – | – | – | – | – |
| 0.86 | 112 | 208 | COc1ccc(CN2C3CC2CN(c2cnc(-c4cc(OCC5C[C@H]6CC[C@@H](C5)N6)cn5ncc(C#N)c45)cn2)C3)cn1 (stereo partly drawn) [Compound 40, 6-(((1R, 5S)-8-azabicyclo[3.2.1]oct-3-yl)methoxy)-4-(5-(6-((6-methoxypyridine-3-yl)methyl)-3,6diazabicyclo[3.1.1]heptan-3-yl)pyrazin-2-yl)pyrazolo[1,5-a]pyridine-3-carbonitrile] | – | – | – | – | – | – |
| – | – | – | COc1ccc(CN2C3CC2CN(c2cnc(-c4cc(OC(=O)NC(C)C)cn5ncc(C#N)c45)cn2)C3)cn1 [Compound 41, 3-cyano-4-(5-(6-((6-methoxypyridin-3-yl)methyl)-3,6-diazabicyclo[3.1.1]heptan-3-yl)pyrazin-2-yl)pyrazolo[1,5-a]pyridin-6-ylisopropylcarbamate] | 6.2 | 266 | – | – | – | – |
| 0.22 | 19.3 | – | COc1ccc(CN2C3CC2CN(c2ccc(-c4cc(NCCO)cn5ncc(C#N)c45)cn2)C3)cn1 [Compound 51, 6-((2-hydroxyethyl)amino)-4-(6-(6-((6-methoxypyridin-3-yl)methyl)-3,6-diazabicyclo[3.1.1]hept-3-yl)pyridin-3-yl)pyrazolo[1,5-a]pyridine-3-carbonitrile] | – | – | – | – | – | – |
| 0.49 | 8.48 | 6.77 | COc1ccc(CN2C3CC2CN(c2ccc(-c4cc(N5CCCC5)cn5ncc(C#N)c45)cn2)C3)cn1 [Compound 55, 4-(6-(6-((6-methoxypyridin-3-yl)methyl)-3,6-diazabicyclo[3.1.1]heptyl-3-yl)pyridin-3-yl)-6-(pyrrolidin-1-yl)pyrazolo[1,5-a]pyridine-3-carbonitrile] | – | – | – | – | – | – |
| 1.69 | 93.8 | 11.9 | COc1ccc(CN2C3CC2CN(c2ccc(-c4cc(NCC(=O)N(C)C)cn5ncc(C#N)c45)cn2)C3)cn1 [Compound 59, 2-((3-cyano-4-(6-(6-((6-methoxypyridin-3-yl)methyl)-3,6-diazabicyclo[3.1.1]heptan-3-yl)pyridin-3-yl)pyrazolo[1,5-a]pyridin-6-yl)amino)-N,N-dimethylacetamide] | – | – | – | – | – | – |
| 1.1 | 482 | 60.4 | COc1ccc(CN2C3CC2CN(c2ccc(-c4cc(N(C)CCN(C)C)cn5ncc(C#N)c45)cn2)C3)cn1 [Compound 61] | – | – | – | – | – | – |

| Molecule | IC50 [1, 6] [nM] | IC50 [2] [nM] | GI50 [3, 7] [nM] | IC50 [1] [nM] | GI50 ([3]; read-out: Ba/F3-KIF5B-RET cell activity, 72 h) [nM] | IC50 [4] [nM] | inhibitory activity against G810S (in words) [4] | IC50 [5] [nM] | inhibitory activity against G810R (in words) [5] |
| --- | --- | --- | --- | --- | --- | --- | --- | --- | --- |
| CNc1cc(-c2ccc(N3CC4CC(C3)N4Cc3ccc(OC)nc3)nc2)c2c(C#N)cnn2c1 [Compound 47, 4-(6-(6-((6-methoxypyridin-3-yl)methyl)-3,6-diazabicyclo[3.1.1]heptyl-3-yl)pyridin-3-yl)-6-(methylamino)pyrazolo[1,5-a]pyridine-3-carbonitrile] | 0.04 | 33.7 | 1.42 | – | – | 1.23 | good inhibitory activity | 8.93 | good inhibitory activity |
| COc1ccc(CN2C3CC2CN(c2ccc(-c4cc(Br)cn5ncc(C#N)c45)cn2)C3)cn1 [Compound 48] | 2.89 | 875 | 105 | – | – | 13 | good inhibitory activity | 63.2 | good inhibitory activity |
| COc1ccc(CN2C3CC2CN(c2ccc(-c4cc(NCCF)cn5ncc(C#N)c45)cn2)C3)cn1 [Compound 49, 6-((2-fluoroethyl)amino)-4-(6-(6-((6-methoxypyridin-3-yl)methyl)-3,6-diazabicyclo[3.1.1]hept-3-yl)pyridin-3-yl)pyrazolo[1,5-a]pyridine-3-carbonitrile] | 0.19 | 28.4 | 1.52 | – | – | 0.53 | good inhibitory activity | 1.85 | good inhibitory activity |
| ethyl 4(6-(4-(6-methoxypyridin-3-yl)piperazin-1-yl)pyridin-3-yl)-6-(1-methyl-1H-pyrazol-4-yl)H-pyrazolo[1,5-a]pyridine-3-carboxylate [Compound 1] | 3.1 | – | 271 | – | – | – | – | – | – |
